The record followed here is PMC11995724, “Antibiotic target discovery by integrated phenotypic and activity-based profiling of electrophilic fragments” (Cell chemical biology, 2025).

This series is described as follows: in vitro. To be noted: human, hek293t cells.
As usually defined, the viability is a read-out of living cells in per cent, often relative to untreated cells. For the compound `CC(Cl)C(=O)N1CCCC(CC(=O)OC(C)(C)C)CC1` (centres unmarked) [6-P18, tert-butyl 2-[1-(2-chloropropanoyl)azepan-4-yl]acetate], the viability at 48 h, 25 µM came to 93.9%.
Then `Cc1noc(C)c1C(C)CNC(=O)C(C)Cl` (centres unmarked) [6-P19, 2-chloro-N-[2-(3,5-dimethyl-1,2-oxazol-4-yl)propyl]propanamide], with 115%; and `CC(Cl)C(=O)N(C)Cc1cc(Cl)cn1C` (centres unmarked) [6-P21, 2-chloro-N-[(4-chloro-1-methyl-1H-pyrrol-2-yl)methyl]-N-methylpropanamide], with 103%; and `O=C(CCl)NC1CN(C(=O)C2CC2)C1` [6-P22, 2-chloro-N-(1-cyclopropanecarbonylazetidin-3-yl)acetamide], with 112%.
Turning to `CC(Cl)C(=O)N1CCCCC1c1cnn(C)c1` (centres unmarked) [7-A03, 2-chloro-1-[2-(1-methyl-1H-pyrazol-4-yl)piperidin-1-yl]propan-1-one], the viability at 48 h, 25 µM amounted to 98.8%.
Take `CC(Cl)C(=O)NCc1nc(N(C)C)no1` (centres unmarked) [7-A04, 2-chloro-N-{[3-(dimethylamino)-1,2,4-oxadiazol-5-yl]methyl}propanamide]: the viability at 48 h, 25 µM was found to be 92.2%.
On to `CC(Cl)C(=O)NCc1nc2c(s1)CC(c1ccccc1)CC2` (centres unmarked) [7-A05, 2-chloro-N-[(6-phenyl-4,5,6,7-tetrahydro-1,3-benzothiazol-2-yl)methyl]propanamide], for which the viability at 48 h, 25 µM came to 57.5%.
Then `CC(Cl)C(=O)NCC1(C2CC2)CCC1` (centres unmarked) [7-A06, 2-chloro-N-[(1-cyclopropylcyclobutyl)methyl]propanamide], with 81.1%.
`CC(Cl)C(=O)NCC(C)c1nncn1C` (centres unmarked) [7-A07, 2-chloro-N-[2-(4-methyl-4H-1,2,4-triazol-3-yl)propyl]propanamide]: the viability at 48 h, 25 µM came out at 84.8%.
Then `CC(Cl)C(=O)N1CCCC(n2ccc(C(F)(F)F)n2)C1` (centres unmarked) [7-A08, 2-chloro-1-{3-[3-(trifluoromethyl)-1H-pyrazol-1-yl]piperidin-1-yl}propan-1-one], with 80.7%; and `CC(Cl)C(=O)N1CCOCC1c1cccn1C` (centres unmarked) [7-A09, 2-chloro-1-[3-(1-methyl-1H-pyrrol-2-yl)morpholin-4-yl]propan-1-one], with 82%.
To `CC(Cl)C(=O)NCc1nnc(C2CCC2)n1C` (centres unmarked) [7-A10, 2-chloro-N-[(5-cyclobutyl-4-methyl-4H-1,2,4-triazol-3-yl)methyl]propanamide] belongs 87.1%; to `CC(Cl)C(=O)NC1(c2ccccc2)CCOCC1` (centres unmarked) [7-A11, 2-chloro-N-(4-phenyloxan-4-yl)propanamide], 108%; to `CC(Cl)C(=O)NCc1cc(-c2ccccc2)on1` (centres unmarked) [7-A13, 2-chloro-N-[(5-phenyl-1,2-oxazol-3-yl)methyl]propanamide], 74.7%.
Then `CC(Cl)C(=O)NCCc1cn(C)nn1` (centres unmarked) [7-A14, 2-chloro-N-[2-(1-methyl-1H-1,2,3-triazol-4-yl)ethyl]propanamide], with 82.7%; and `CC(Cl)C(=O)N1CCN(Cc2ccc3ccccc3n2)CC1` (centres unmarked) [7-A15, 2-chloro-1-{4-[(quinolin-2-yl)methyl]piperazin-1-yl}propan-1-one], with 83.2%; and `Cc1ccc(N2CCN(C(=O)C(C)Cl)CC2=O)o1` (centres unmarked) [7-A16, 4-(2-chloropropanoyl)-1-(5-methylfuran-2-yl)piperazin-2-one], with 74.7%.
Take `CC(Cl)C(=O)NC1COc2ccc(F)cc21` (centres unmarked) [7-A17, 2-chloro-N-(5-fluoro-2,3-dihydro-1-benzofuran-3-yl)propanamide]: the viability at 48 h, 25 µM is 74%.
In the case of `CC(Cl)C(=O)N1CCC(Oc2ccc(C3CC3)cn2)C1` (centres unmarked) [7-A18, 2-chloro-1-{3-[(5-cyclopropylpyridin-2-yl)oxy]pyrrolidin-1-yl}propan-1-one], the viability at 48 h, 25 µM was 60.4%.
Then `Cc1nnnn1CCNC(=O)C(C)Cl` (centres unmarked) [7-A19, 2-chloro-N-[2-(5-methyl-1H-1,2,3,4-tetrazol-1-yl)ethyl]propanamide], with 79%.
